In US8178678B2, “Bis-quaternary ammonium salts and methods for modulating neuronal nicotinic acetylcholine receptors” (University of Kentucky Research Foundation, priority 2006, dated 2012):

Legend:
[1] = target: T1, Rat Striatal Nicotinic Receptors ([^3H]NIC binding sites; α4β2) (Rattus norvegicus, UniProt P09483+P12390); test: Inhibition of [^3H]NIC binding; settings: 1 h; 100 nM analog; 3 nM [^3H]NIC; nonspecific 10 μM cytisine; rat brain membranes
T1 construct: Whole brain, excluding cortex and cerebellum, was homogenized in 20 vol of ice-cold buffer; from tissue; host or cells: rat brain membranes (whole brain excluding cortex and cerebellum)
Description: (§1) Homogenate was centrifuged (25,000 g, 15 min, 4° C). Pellets were resuspended in 20 vol buffer and incubated at 37° C., for 10 min, cooled to 4° C. and centrifuged (25,000 g, 15 min, 4° C.). Pellets were resuspended and centrifuged using the same conditions. […] Upon use, final pellets were resuspended in 20 vol assay buffer. Samples (250 μl) contained 100-140 μg of membrane protein, 3 nM [^3H]-S-nicotine or 3 nM [^3H]-methyllycaconitine (MLA), and bis-quaternary ammonium analog (100 nM) in assay buffer containing 50 mM Tris. Control was in the absence of analog. In [^3H]-S-nicotine and [^3H]-methyllycaconitine binding assays, nonspecific binding was determined in the presence of 10 μM cytisine and 10 μM S-nicotine, respectively. Incubations proceeded for 60 min at room temperature using 96-well plates and were terminated by harvesting on Unifilter-96 GF/B filter plates presoaked in 0.5% polyethylenimine, using a Packard FilterMate harvester. After washing 5 times with 350 μl ice-cold assay buffer, filter plates were dried (60 min, 4° C.), bottom-sealed, and filled with Packard's MicroScint 20 cocktail (40 μl/well). After 60 min, filter plates were top-sealed, and radioactivity determined using a Packard TopCount. Protein concentrations were determined using the Bradford dye-binding procedure bovine serum albumin as the standard.
Specific binding in the [^3H]NIC binding assay is calculated as the difference between the total binding of 3 nM [^3H]NIC and nonspecific binding in the presence of 10 μM cold cytisine. […] Analog-induced inhibition of S-nicotine-evoked [^3H]DA release is calculated as a percent of that in the absence of the bis-quaternary ammonium analog.

[2] = tested on: nicotinic receptors mediating S-nicotine-evoked [^3H]DA release in rat striatal slices; test: Inhibition of S-nicotine-evoked [^3H]dopamine release from superfused rat striatal slices; assay type: cell-based; settings: 1 h; 100 nM analog superfused 60 min before NIC 10 μM; rat striatal slices; read-out: [^3H]DA release, % inhibition of S-nicotine-evoked release
Description: Rat striatal slices (500 μm thickness, 6-8 mg wet weight) were incubated for 30 minutes in Krebs buffer (118 mM NaCl, 4.7 mM KCl, 1.2 mM MgCl2, 1.0 mM NaH2PO4, 1.3 mM CaCl2, 11.1 mM glucose, 25 mM NaHCO3, 0.11 mM L-ascorbic acid, and 0.004 mM disodium EDTA; pH 7.4, and saturated with 95% O2/5% CO2) in a metabolic shaker at 34° C. Slices were rinsed with 15 mL of fresh buffer and incubated for an additional 30 minutes in fresh buffer containing 0.1 μM [^3H]dopamine (DA; 6 slices/3 mL). Subsequently, slices were rinsed with 15 mL of fresh buffer and transferred to a glass superfusion chamber. Slices were superfused (1.0 mL/min) for 60 minutes with Krebs buffer containing nomifensine (10 μM) and pargyline (10 μM) and maintained at 34° C., pH 7.4, with continual aeration (95% O2/5% CO2). Two five minute samples (5 mL each) were collected to determine basal outflow of [^3H]DA. The bis-quaternary ammonium analogs were added to the superfusion buffer after the collection of the second sample and remained in the buffer until 12 consecutive five minute samples were collected. Subsequently, S-nicotine (NIC; 10 μM) was added to the buffer and an additional 12 consecutive five minute samples were collected. At the end of the experiment, each slice was solubilized and the [^3H] content of the tissue determined.
Radioactivity in the superfusate and tissue samples was determined by liquid scintillation spectroscopy. Fractional release for tritium collected in each sample was divided by the total tritium present in the tissue at the time of sample collection and was expressed as a percentage of total tritium. Basal [^3H]outflow was calculated from the average of the tritium collected in the two five minute samples just before addition of the quaternary analog. The sum of the increase in collected tritium resulting from either exposure to the test compound or exposure to S-nicotine in the absence and presence of the test compound equaled total [^3H]overflow. [^3H]Overflow was calculated by subtracting the [^3H]outflow during an equivalent period of prestimulation from the values in samples collected during and after drug exposure. Inasmuch as the radiolabelled compounds were not separated and identified, the tritium collected in superfusate is referred to as either [3H]outflow or [^3H]overflow, rather than as [^3H]DA. [^3H]Overflow primarily represents [^3H]DA in the presence of nomifensine and pargyline in the superfusion buffer.
The bis-quaternary ammonium analogs were also evaluated for their ability to inhibit NIC evoked [^3H]DA release. In these experiments, the striatal slices were superfused for 60 minutes with 100 nM concentration of the quaternary analogs prior to NIC (10 μM) exposure. Antagonist activity was evaluated by comparing the NIC-evoked [^3 H]overflow in the absence and presence of the analogs. The relative order of potency of the quaternary analogs for inhibition of NIC-evoked [^3H]DA release from rat striatal slices is illustrated in Table 1.
^aData are % inhibition at 100 nM concentration of the bis-quaternary ammonium analogs for at least 1-3 independent experiments; with the exception of when a Ki value in μM is provided, in which case a full concentration effect was evaluated. Specific binding in the [^3H]NIC binding assay is calculated as the difference between the total binding of 3 nM [^3H]NIC and nonspecific binding in the presence of 10 μM cold cytisine. Specific binding for the [^3H]MLA binding assay is calculated as the difference between the total binding of […] [^3H]MLA to the receptors alone and its nonspecific binding in the presence of […] cold S-nicotine. Analog-induced inhibition of S-nicotine-evoked [^3H]DA release is calculated as a percent of that in the absence of the bis-quaternary ammonium analog.

[3] = target: T2, Rat Striatal Nicotinic Receptors ([^3H]MLA binding sites; α7) (Rattus norvegicus, UniProt Q05941); test: Inhibition of [^3H]MLA (methyllycaconitine) binding; settings: 100 nM analog; [^3H]MLA; nonspecific S-nicotine; rat brain membranes; read-out: [^3H]MLA binding, % inhibition
T2 construct: Whole brain, excluding cortex and cerebellum, was homogenized in 20 vol of ice-cold buffer; from tissue; host or cells: rat brain membranes (whole brain excluding cortex and cerebellum)
Description: as §1, with “standard. […]” for “standard.”

T1 sequence (P09483 31-630): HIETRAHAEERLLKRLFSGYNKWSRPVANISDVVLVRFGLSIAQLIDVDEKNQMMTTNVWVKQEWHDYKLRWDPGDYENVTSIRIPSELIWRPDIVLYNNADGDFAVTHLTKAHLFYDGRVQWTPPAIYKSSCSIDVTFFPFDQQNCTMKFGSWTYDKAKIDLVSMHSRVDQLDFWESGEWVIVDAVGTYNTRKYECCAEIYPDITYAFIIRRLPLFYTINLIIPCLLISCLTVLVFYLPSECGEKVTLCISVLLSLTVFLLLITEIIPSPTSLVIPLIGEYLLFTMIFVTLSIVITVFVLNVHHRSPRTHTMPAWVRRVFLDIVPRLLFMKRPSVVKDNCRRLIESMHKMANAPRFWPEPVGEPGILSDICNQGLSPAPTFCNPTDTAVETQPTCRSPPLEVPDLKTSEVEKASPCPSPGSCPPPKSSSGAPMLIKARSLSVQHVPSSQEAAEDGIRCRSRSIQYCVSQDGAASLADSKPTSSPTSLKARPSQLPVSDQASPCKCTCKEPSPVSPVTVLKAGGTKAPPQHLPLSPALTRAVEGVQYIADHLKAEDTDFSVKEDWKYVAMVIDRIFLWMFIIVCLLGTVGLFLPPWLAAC
T1 sequence (P12390 25-500): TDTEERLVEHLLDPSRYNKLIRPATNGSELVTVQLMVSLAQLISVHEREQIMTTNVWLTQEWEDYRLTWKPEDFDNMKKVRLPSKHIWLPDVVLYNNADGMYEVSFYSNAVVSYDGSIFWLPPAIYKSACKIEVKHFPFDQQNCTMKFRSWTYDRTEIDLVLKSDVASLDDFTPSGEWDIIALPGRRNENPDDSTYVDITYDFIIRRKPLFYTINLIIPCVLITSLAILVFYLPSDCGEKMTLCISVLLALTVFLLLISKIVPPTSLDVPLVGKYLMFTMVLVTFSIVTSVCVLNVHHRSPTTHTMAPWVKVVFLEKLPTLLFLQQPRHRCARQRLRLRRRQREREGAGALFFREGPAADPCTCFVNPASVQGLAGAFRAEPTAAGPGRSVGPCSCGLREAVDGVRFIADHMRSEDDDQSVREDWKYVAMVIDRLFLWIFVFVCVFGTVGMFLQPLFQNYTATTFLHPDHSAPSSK
T2 sequence (Q05941 23-502): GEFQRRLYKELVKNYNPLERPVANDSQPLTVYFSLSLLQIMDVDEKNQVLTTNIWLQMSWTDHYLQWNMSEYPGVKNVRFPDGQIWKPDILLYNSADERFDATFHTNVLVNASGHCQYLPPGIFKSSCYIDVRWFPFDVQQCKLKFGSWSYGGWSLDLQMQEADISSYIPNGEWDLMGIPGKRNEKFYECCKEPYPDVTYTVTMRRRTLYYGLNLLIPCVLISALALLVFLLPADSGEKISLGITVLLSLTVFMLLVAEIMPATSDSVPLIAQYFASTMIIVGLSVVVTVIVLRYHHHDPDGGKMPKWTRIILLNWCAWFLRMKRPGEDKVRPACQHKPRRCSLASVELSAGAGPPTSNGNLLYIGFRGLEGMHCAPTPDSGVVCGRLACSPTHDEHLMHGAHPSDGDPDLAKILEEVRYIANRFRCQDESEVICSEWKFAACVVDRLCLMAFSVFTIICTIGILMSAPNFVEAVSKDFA

| Structure (SMILES) | inhibition at 0.1 µM [1] [%] | inhibition at 0.1 µM [2] [%] | inhibition at 0.1 µM [3] [%] |
| --- | --- | --- | --- |
| Cc1cc[n+](CCCCCc2ccccc2CCCCC[n+]2ccc(C)c(C)c2)cc1C [Example 38, 1,2-bis-[5-(3,4-dimethyl-pyridinium)-pentyl]-benzene dibromide] | 3 | 10 | 4.6 |
| Cc1cc(C)c[n+](CCCCCc2ccccc2CCCCC[n+]2cc(C)cc(C)c2)c1 [Example 39, 1,2-bis-[5-(3,5-dimethyl-pyridinium)-pentyl]-benzene dibromide] | 0.7 | 47 | 0 |
| c1ccc(CCCCC[n+]2cccc3ccccc32)c(CCCCC[n+]2cccc3ccccc32)c1 [Example 40, 1,2-bis-(5-quinolinium-pentyl)-benzene dibromide] | 0 | 24 | 6.3 |
| c1ccc(CCCCC[n+]2ccc3ccccc3c2)c(CCCCC[n+]2ccc3ccccc3c2)c1 [Example 41, 1,2-bis-(5-isoquinolinium-pentyl)-benzene dibromide] | 1.9 | 54 | 0 |
| CN1CCCC1c1ccc[n+](CCCCCc2ccccc2CCCCC[n+]2cccc([C@@H]3CCCN3C)c2)c1 (stereo partly drawn) [Example 42, 1,2-bis-[5-(2′-S-nicotinium-pentyl)]benzene dibromide] | 71 | 59 | 11 |
| Brc1ccc[n+](CCCCCc2ccccc2CCCCC[n+]2cccc(Br)c2)c1 [Example 44, 1,2-bis-[5-(3-bromo-pyridinium)-pentyl]-benzene dibromide] | 2.9 | 7 | 0.9 |
| c1cc[n+](CCCCCc2ccccc2CCCCC[n+]2ccccc2)cc1 [Example 45, 1,2-bis-(5-pyridinium-pentyl)-benzene dibromide] | 3.3 | 37 | 1.9 |
| Cc1cccc[n+]1CCCC#Cc1cccc(C#CCCC[n+]2ccccc2C)c1 [Example 48, 1,3-bis-[5-(2-methyl-pyridinium)-pent-1-ynyl]-benzene dibromide] | 1.9 | 35 | 0 |
| Cc1ccc[n+](CCCC#Cc2cccc(C#CCCC[n+]3cccc(C)c3)c2)c1 [Example 49, 1,3-bis-[5-(3-methyl-pyridinium)-pent-1-ynyl]-benzene dibromide] | 0.5 | 6 | 8 |
| Cc1cc[n+](CCCC#Cc2cccc(C#CCCC[n+]3ccc(C)cc3)c2)cc1 [Example 50, 1,3-bis-[5-(4-methyl-pyridinium)-pent-1-ynyl]-benzene dibromide] | 10 | 26 | 6.4 |
| Cc1cc[n+](CCCC#Cc2cccc(C#CCCC[n+]3ccc(C)cc3C)c2)c(C)c1 [Example 51, 1,3-bis-[5-(2,4-dimethyl-pyridinium)-pent-1-ynyl]-benzene dibromide] | 7 | 0 | 5.5 |
| Cc1cc[n+](CCCC#Cc2cccc(C#CCCC[n+]3ccc(C)c(C)c3)c2)cc1C [Example 52, 1,3-bis-[5-(3,4-dimethyl-pyridinium)-pent-1-ynyl]-benzene dibromide] | 11 | 11 | 3.3 |
| Cc1cc(C)c[n+](CCCC#Cc2cccc(C#CCCC[n+]3cc(C)cc(C)c3)c2)c1 [Example 53, 1,3-bis-[5-(3,5-dimethyl-pyridinium)-pent-1-ynyl]-benzene dibromide] | 0 | 4 | 1.3 |
| C(#Cc1cccc(C#CCCC[n+]2cccc3ccccc32)c1)CCC[n+]1cccc2ccccc21 [Example 54, 1,3-bis-(5-quinolinium-pent-1-ynyl)-benzene dibromide] | 16 | 17 | 3.9 |
